# Counter-ions that a name gives are not always drawn.
# Molecular target: T1, calcium receptor (Homo sapiens, UniProt P41180)
# T1 construct: expressed in transfected cells; host or cells: HEK 293 4.0-7
# T1 sequence (P41180 20-1078): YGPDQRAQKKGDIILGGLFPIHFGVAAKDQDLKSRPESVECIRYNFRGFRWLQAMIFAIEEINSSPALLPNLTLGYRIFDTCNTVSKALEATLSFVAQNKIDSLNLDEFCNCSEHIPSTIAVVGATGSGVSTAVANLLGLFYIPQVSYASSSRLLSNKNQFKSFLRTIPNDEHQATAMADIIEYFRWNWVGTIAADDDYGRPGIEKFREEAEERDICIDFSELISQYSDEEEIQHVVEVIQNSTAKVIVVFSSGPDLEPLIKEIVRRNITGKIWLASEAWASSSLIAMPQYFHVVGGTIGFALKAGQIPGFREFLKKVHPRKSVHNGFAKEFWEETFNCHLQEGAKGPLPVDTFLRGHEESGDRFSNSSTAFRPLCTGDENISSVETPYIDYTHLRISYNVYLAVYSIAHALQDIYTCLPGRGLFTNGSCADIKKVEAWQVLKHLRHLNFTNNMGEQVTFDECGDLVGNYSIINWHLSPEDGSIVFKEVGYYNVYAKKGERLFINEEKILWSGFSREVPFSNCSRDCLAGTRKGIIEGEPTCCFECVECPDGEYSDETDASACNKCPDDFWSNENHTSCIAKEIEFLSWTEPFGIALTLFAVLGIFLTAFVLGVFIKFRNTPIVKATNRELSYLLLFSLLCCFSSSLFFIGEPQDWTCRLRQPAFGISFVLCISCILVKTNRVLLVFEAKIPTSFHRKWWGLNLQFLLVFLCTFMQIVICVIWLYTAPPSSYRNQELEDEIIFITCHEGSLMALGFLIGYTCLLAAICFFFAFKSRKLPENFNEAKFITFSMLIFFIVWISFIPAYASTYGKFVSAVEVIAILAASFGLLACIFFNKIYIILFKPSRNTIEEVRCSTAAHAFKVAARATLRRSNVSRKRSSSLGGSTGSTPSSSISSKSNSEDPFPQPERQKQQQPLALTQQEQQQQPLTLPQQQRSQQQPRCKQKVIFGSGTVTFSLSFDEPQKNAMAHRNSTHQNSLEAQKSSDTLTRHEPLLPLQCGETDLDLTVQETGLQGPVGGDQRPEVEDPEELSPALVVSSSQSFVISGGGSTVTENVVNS
# Experiment: Calcium receptor activity in recombinant HEK 293 4.0-7 cells (fluorescence of dye-loaded cells)
# Assay type: cell-based
# Conditions: recombinant HEK 293 4.0-7 cells containing a calcium receptor; 1 mM CaCl2, 1 mM MgCl2; fluorescence 340/510 nm
# Procedure: Recombinant HEK 293 4.0-7 cells containing a calcium receptor were constructed as described by Rogers et al., J. Bone Miner. Res. 10 Suppl. 1:S483, 1995 (hereby incorporated by reference herein). The recombinant cells were loaded with fura-2 by incubating the cells in Dulbecco's modified Eagle's medium buffered with 20 mM HEPES containing about 5 μM […] for one hour at room temperature. Cells were then rinsed with Hank's balanced salt solution buffered with 20 mM HEPES containing 1 mM CaCl2 and 1 mM MgCl2. Compounds to be tested were then added to the cells and fluorescence was measured (excitation and emission wavelengths of 340 and 510 nm, respectively).
row,Molecule,EC50 [nM]
1,"C[C@@H](N[C@H](C)c1cccc2ccccc12)c1ccc(I)cc1 [Compound 26D, hydrochloride]",47
2,"CCOc1ccc([C@@H](C)N[C@H](C)c2cccc3ccccc23)cc1C [Compound 26E, hydrochloride]",77
3,"CC[C@@H](N[C@H](C)c1cccc2ccccc12)c1ccc(OC)c(C)c1 [Compound 26F, hydrochloride]",15
4,"C[C@@H](NCC=Cc1ccccc1)c1cccc2ccccc12 [Compound 26H, (R)-N-(3-phenyl-2-propenyl)-1-(1-naphthyl)ethylamine hydrochloride]",36
5,"CC(=Cc1ccccc1)CN[C@H](C)c1cccc2ccccc12 [Compound 26I, (R)-N-(2-methyl-3-phenyl-2-propenyl)-1-(1-naphthyl)ethylamine hydrochloride]",126
6,"COc1ccccc1C=CCN[C@H](C)c1cccc2ccccc12 [Compound 26J, hydrochloride]",47
7,"(R,R)-N-(1-Ethyl-4′-methoxy-3′-bromophenyl)-1-(1-naphthyl)ethylamine hydrochloride [Compound 26G]",11

# — patent US6710088B2 (NPS Pharmaceuticals, Inc., priority 1996, dated 2004)
